In assay [1] the target is T1, human α2A-adrenergic receptor (hα2A; αh2A) (Homo sapiens, UniProt P08913).
T1 sequence (P08913 1-465): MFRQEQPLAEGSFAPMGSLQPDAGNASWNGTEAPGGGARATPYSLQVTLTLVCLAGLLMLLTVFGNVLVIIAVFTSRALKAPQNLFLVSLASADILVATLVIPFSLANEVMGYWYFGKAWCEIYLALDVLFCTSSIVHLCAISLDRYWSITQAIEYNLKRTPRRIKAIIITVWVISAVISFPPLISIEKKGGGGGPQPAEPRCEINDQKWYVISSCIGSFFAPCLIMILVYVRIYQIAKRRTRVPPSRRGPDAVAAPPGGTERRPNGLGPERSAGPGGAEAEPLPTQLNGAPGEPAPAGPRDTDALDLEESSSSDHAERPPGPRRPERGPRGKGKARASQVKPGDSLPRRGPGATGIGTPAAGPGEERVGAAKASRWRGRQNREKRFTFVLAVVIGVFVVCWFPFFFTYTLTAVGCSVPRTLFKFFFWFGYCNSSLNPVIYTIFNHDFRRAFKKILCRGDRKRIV
Put plainly: [3H]RX821002 displacement, filtration, Sf9 membranes. Particulars: […] [3H]RX821002; […] Tris-HCl pH […] MgCl2, […] EDTA. The assay is classed as binding.

The target of assay [2] is T1, human α2A-adrenergic receptor (hα2A; αh2A). Put plainly: radioligand binding, filtration, Sf9 membranes. To be noted: labelled compound, […]; […] Tris-HCl pH […] MgCl2, […] EDTA; […] h.

`CN1CCc2cc(Cl)c(O)cc2[C@@H](c2ccccc2)C1` [SCH-23390]: in assay [1], the “[3H]RX821002 displacement, filtration, Sf9 membranes” value (“[3H]RX821002 displacement” for short) is “apomorphine, SCH-23390 and clozapine display a substantial affinity for α2a-adrenergic receptors”.
Take `CN1CCc2cccc3c2[C@H]1Cc1ccc(O)c(O)c1-3` [apomorphine]: in assay [1], the “[3H]RX821002 displacement” value is “apomorphine, SCH-23390 and clozapine display a substantial affinity for α2a-adrenergic receptors”.
For `CN1CCN(C2=Nc3cc(Cl)ccc3Nc3ccccc32)CC1` [clozapine], the “[3H]RX821002 displacement” value in assay [1] was “apomorphine, SCH-23390 and clozapine display a substantial affinity for α2a-adrenergic receptors”.
With `COC1(C2=NCCN2)COc2ccccc2O1` (stereo not shown) [RX821002], the “radioligand binding, filtration, Sf9 membranes” value in assay [2] is “[^3H]RX821002 binding was concentration-dependently inhibited by increasing concentrations of both norepinephrine and dopamine”.

These data come from publication PMC2858410 (The Journal of comparative neurology, 2008).
